These compounds were tested on MCA-205 sarcoma (assay: Subcutaneous MCA-205 sarcoma tumor model (anti-PD-1 sensitive), SPF-reared mice). Details: 0.85 mg/kg per mouse daily oral gavage; in contrast to castalagin.
Format: in vivo, C57BL/6 mice
Description: FIG. 1A is a schematic of the protocol used to study the effect of a Camu camu extract (CC) alone and additive effect when combined to anti-PD-1 therapy in a murine tumor model sensitive to anti-PD-1 therapy. Syngeneic C57BL/6 mice were implanted with 0.8×10^6 MCA-205 sarcoma, subcutaneously and treated intraperitoneally (i.p.) when tumors reached 20 to 35 mm^2 in size with anti-PD-1 mAb (250 μg/mouse; clone RMP1-14,) or isotype control (clone 2A3) with or without daily oral gavage with 200 mg/kg of [NT] Powder from SunFood). Murine studies. All animal studies were approved by the Institutional Animal Care Committee (CIPA) and carried out in compliance with the Canadian Council on Animal Care guidelines. Murine experiments were conducted using seven-week-old female C57BL/6 mice, obtained from Charles River, Canada. Germ-free female C57BL/6 mice were purchased from the International Microbiome Centre Germ-Free Facility (University of Calgary, Canada) and maintained at the CR-CHUM Germ-Free Facility. Cell culture, reagents and tumor cell lines. MCA-205 fibrosarcoma cells and E0771 mammary adenocarcinoma cells, class I MHC H-2b syngeneic cell lines for C57BL/6 mice, were used for this study. MCA-205 cells were cultured at 37° C. in the presence of 5% CO2 in Roswell Park Memorial Institute (RPMI) 1640 (Gibco-lnvitrogen) containing 10% Fetal bovine serum (FBS) (Wisent), 2 mM L-glutamine (Wisent), 100 IU/ml penicillin/streptomycin (Wisent), 1 mM sodium pyruvate (Wisent) and MEM non-essential amino acids (Gibco-lnvitrogen). E0771 cells were cultured at 37° C. in the presence of 5% CO2 in Dulbecco's Modified Eagle's Medium (DMEM) (Gibco-lnvitrogen) containing 10% FBS (Wisent), 2 mM L-glutamine, 100 IU/ml penicillin/streptomycin (Wisent), 1 mM sodium pyruvate (Wisent). Subcutaneous model of MCA-205 sarcoma and E0771 breast cancer. Syngeneic C57BL/6 mice were implanted with 0.8×10^6 MCA-205 or 0.5×10^6 E0771 subcutaneously. When tumors reached 20 to 35 mm^2 in size, mice were treated four times (or two times for flow cytometry analysis, see section below) intraperitoneally (i.p.) every three day with anti-PD-1 monoclonal antibody (mAb) (250 μg/mouse; clone RMP1-14, BioXcell) or isotype control (clone 2A3, BioXcell). Upon treatment initiation, mice received a daily oral gavage with the following products: Myrciaria dubia, [NT] raw extract (Sunfood) (200 mg/kg per mouse), fractions from the extraction round 1 (P, INT, NP, Insol) (40.18 mg/kg per mouse), fractions from the extraction round 2 (P1, P2, P3 and P4) (equivalent to fraction P dose of 40.18 mg/kg per mouse), […] (extracted from CC, see isolation process below) (0.85 mg/kg per mouse), ellagic acid (0.85 mg/kg per mouse) (Sigma-Aldrich), urolithin A (0.85 mg/kg per mouse) (Sigma-Aldrich), […] (0.5 mg/kg per mouse) (PhytoProof®, Sigma-Aldrich) and castalagin at different concentration: 1/8, 1/6, 1/4, 1/2 of the standard concentration, at the standard concentration (0.85 mg/kg per mouse), 1.5-fold (1.25 mg/kg per mouse) and three-fold increase concentration (2.55 mg/kg per mouse) (PhytoProof©, Sigma-Aldrich or isolated from food grade oak, see isolation process below). In the control group mice received daily oral gavage with water (100 μL) Tumor area was routinely monitored every three days by means of a caliper. In the depletion experiments, we used the anti-CD8 mAb (150 μg/mouse; clone 53-6.7, BioXcell) or isotype control (clone 2A3, BioXcell.

Row | Structure (SMILES) | antitumor effect (tumor size at sacrifice)
1 | O=c1oc2c(O)c(O)cc3c(=O)oc4c(O)c(O)cc1c4c23 [ellagic acid, reference compound] | no antitumor effects were observed
2 | O=c1oc2cc(O)ccc2c2ccc(O)cc12 [urolithin A, reference compound] | no antitumor effects were observed
3 | O=C1OC[C@H]2OC(=O)c3cc(O)c(O)c(O)c3-c3c(O)c(O)c(O)c4c3C(=O)O[C@H]([C@H]3OC(=O)c5c-4c(O)c(O)c(O)c5[C@H]3O)[C@@H]2OC(=O)c2cc(O)c(O)c(O)c2-c2c1cc(O)c(O)c2O [vescalagin, reference compound] | no antitumor effects were observed

— patent US20230075822A1, “USE OF CASTALAGIN OR ANALOGS THEREOF FOR ANTI-CANCER EFFICACY AND TO INCREASE THE RESPONSE TO IMMUNE CHECKPOINT INHIBITORS” (THE ROYAL INSTITUTION FOR THE ADVANCEMENT OF …, priority 2020, published 2023)
